Assay results as given in BindingDB's records for patent US20240239813 (Risen (Suzhou) Pharma Tech Co., 2024).

The compounds below were run against GTPase KRas [G12D] (Homo sapiens, UniProt P01116, G12D) (assay: KRAS Binding Assay).
Description: The ability of a test compound to bind to KRASG12D was measured by using an HTRF KRASG12D GTP Binding Kit (Cisbio, 63ADK000CB27PEG). […] 5 μL of compound solution was added to each well after serial dilution, followed by addition of 5 μL of GDP (50 nM) solution. After 30 minutes incubation at room temperature, 1×6His Eu cryptate antibody solution and GTP-Red tracer were added to the plate, then incubated for another 30 minutes. The HTRF signal was measured with a VICTOR Nivo multimode plate reader according to the manufacturer's instructions.

Sequence of GTPase KRas [G12D] (P01116 whole entry G12D): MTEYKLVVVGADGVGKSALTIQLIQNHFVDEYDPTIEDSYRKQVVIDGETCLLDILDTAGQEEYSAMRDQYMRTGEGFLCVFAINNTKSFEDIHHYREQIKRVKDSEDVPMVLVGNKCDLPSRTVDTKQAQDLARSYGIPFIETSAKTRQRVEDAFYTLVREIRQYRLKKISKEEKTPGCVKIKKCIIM

Row | IC50 | SMILES
1 | > 1 µM | Oc1cc(-c2ncc3c(N4CCCC5(CCO5)C4)nc(OC[C@@]45CCCN4C[C@H](F)C5)nc3c2F)c2ccccc2c1 (some centres undefined) [US20240239813, Compound 8a]
2 | > 1 µM | CN(C)CC1(COc2nc(N3CCC[C@]4(CCO4)C3)c3cnc(-c4cc(N)ccc4-c4cccs4)c(F)c3n2)CC1 [US20240239813, Compound 17a]
3 | > 1 µM | CCc1c(F)ccc2cc(OC(=O)C(C)C)cc(-c3ncc4c(N5CCC[C@]6(CCO6)C5)nc(OCC5(CN(C)C)CC5)nc4c3F)c12 [US20240239813, Compound 22a]
4 | > 1 µM | CCc1c(F)ccc2cc(O)cc(-c3ncc4c(N5CCC(O)(CO)CC5)nc(OC[C@@]56CCCN5C[C@H](F)C6)nc4c3F)c12 [US20240239813, Compound 41]
5 | > 1 µM | CCc1c(F)ccc2cc(O)cc(-c3ncc4c(N5C[C@H](O)[C@@H](O)[C@H](O)[C@H]5CO)nc(OC[C@@]56CCCN5C[C@H](F)C6)nc4c3F)c12 [US20240239813, Compound 51]
6 | > 1 µM | Cc1ccc2[nH]ncc2c1-c1ncc2c(N3CCCC4(CCO4)C3)nc(OC[C@@]34CCCN3C[C@H](F)C4)nc2c1F (some centres undefined) [US20240239813, Compound 71]

Row | SMILES | IC50
7 | CCc1c(F)ccc2cc(O)cc(-c3ncc4c(N5[C@@H]6CC[C@H]5C[C@@H](O)C6)nc(OC[C@@]56CCCN5C[C@H](F)C6)nc4c3F)c12 [US20240239813, Compound 10] | 0.881 µM
8 | CCc1c(F)ccc2cc(O)cc(-c3ncc4c(N5[C@@H]6CC[C@H]5C[C@H](O)C6)nc(OC[C@@]56CCCN5C[C@H](F)C6)nc4c3F)c12 [US20240239813, Compound 11] | > 1 µM
9 | CCc1c(F)ccc2cc(OC(=O)N(C)C)cc(-c3ncc4c(N5CCC[C@]6(CCO6)C5)nc(OCC5(CN(C)C)CC5)nc4c3F)c12 [US20240239813, Compound 24a] | > 1 µM
